Experimental data published in PMC9929129, “Towards Translation of PqsR Inverse Agonists: From In Vitro Efficacy Optimization to In Vivo Proof‐of‐Principle” (Advanced Science, 2023).
≈ marks a conversion by molar mass, not a printed value. Where “and” joins values, the source holds several entries; their conditions need not be identical. Identical values can stand only once.

Legend:
[1] = test system: Ca2+ channel (L, dihydropyridine site); test: Cerep panel binding assay; design: species or system rat; conditions: 10 µM, antagonist radioligand
Experimental: (§1) 1.4 Safety Pharmacology of Compound 24
(§2) 1.4.1 Cerep panel (Eurofins)
(§3) Compound 24 was further profiled for its off-target interactions against a panel of 44 targets. The
(§4) screening was done by Eurofins Pharma Discovery within the SafetyScreen44 Panel (Cerep, ITEM
(§5) P270). In all assays binding/functional inhibition was determined at 10 µM.
Table S6. List of binding assays within the CEREP44 off-target panel and binding data for compound

PA14 biofilm = test: eDNA release assay; assay type: cell-based; conditions: Pseudomonas aeruginosa; PA14, propidium iodine staining
Experimental: The eDNA release assay was performed as described previously[3] with slight modifications. The impact on eDNA was assessed by incubation of biofilm with propidium iodine solution (0.025 mg mL−1) for 3 h and detection of specific florescence at 620 nm after a thorough washing step with […]
1.2.7 P. aeruginosa clinical isolates from bronchiectasis patients – phenotypic characterization and inhibition of pyocyanin production
Clinical isolates. The P. aeruginosa strains had been isolated from respiratory secretions collected from patients with bronchiectasis seen at the bronchiectasis out-patient clinic of Hannover Medical School. The clinical isolates were genotyped by a custom-made multilocus microarray.[4] The hexadecimal SNP genotype was converted into the multilocus sequence genotype (MLST)[5] by comparison with the sequence of the seven selected housekeeping genes in genome sequences of the same clone deposited in our in-house[6] or the International Pseudomonas Genome Database.[7]

[2] = Metabolic stability in mouse hepatocytes; assay type: in vitro ADME; conditions: read-out: Mouse hepatocytes t½
CYP1A = CYP1A (Homo sapiens, UniProt P05177); test: Cytochrome P450 inhibition assay, CYP1A; assay type: in vitro ADME
Experimental: (§6) 1.4.4 Pharmacokinetic and off-target functional assays (Cyprotex)
(§7) Compound 24 was assayed at Cyprotex in functional assays for interference with important off-targets as well as important pharmacokinetic parameters. With the exception of plasma protein binding, a dose-response relationship was studied in order to calculate IC50 values.
(§8) Table S10. Information on in vitro ADMET assays performed at Cyprotex. […]
(§9) An increase in the number of colonies of at least two-fold over baseline (mean + SD of the vehicle control) and a dose response indicate a positive response. An […]
(§10) different from the vehicle control.
(§11) Where indicated, S9 fraction from the livers of Aroclor 1254-treated rats were included in the incubation at a final concentration of 4.5%. A NADPH-regenerating system was also included to ensure a steady supply of reducing equivalents.

[3] = Metabolic stability in mouse liver microsomes (MLM)
Experimental: 1.3.2 Metabolic-Stability Tests in Mouse Liver Microsomes (MLM).
Phase I metabolic stability was evaluated by incubating the compound (1 μM) with 0.5 mg/mL MLM (Corning) and 1 mM NADPH at 37 °C for 0, 5, 10, 15 and 30 min. The enzymatic activity of the MLM was determined by measuring the metabolic stability of Verapamil, Diphenhydramine and Benzydamine (1 μM each).
The half-life (t1/2) was determined by analyzing the concentrations of the compounds at the different time points by HPLC-MS/MS.

[4] = biological target: T1, Potassium Channel hERG (human) (Homo sapiens, UniProt Q12809); test: Cerep panel binding assay; conditions: 10 µM, [3H] Dofetilide
T1 construct: purchased Eurofins Pharma Discovery (Cerep) SafetyScreen44 Panel, ITEM P270
Experimental: as §1, §2, §3, §4, §5
(§12) Table S6. […]
Potassium Channel hERG (human) [3H] […]

5-HT1A (h) = biological target: T2, 5-HT1A (h) (Homo sapiens, UniProt P08908); test: Cerep panel binding assay; conditions: agonist radioligand
T2 construct: purchased Eurofins Pharma Discovery (Cerep) SafetyScreen44 Panel, ITEM P270
Experimental: as §1, §2, §3, §4, §5, §12

beta1 (h) = biological target: T3, beta1 (h) (Homo sapiens, UniProt P08588); test: Cerep panel binding assay; conditions: agonist radioligand
T3 construct: purchased Eurofins Pharma Discovery (Cerep) SafetyScreen44 Panel, ITEM P270
Experimental: as §1, §2, §3, §4, §5, §12

M3 (h) = biological target: T4, M3 (h) (Homo sapiens, UniProt P20309); test: Cerep panel binding assay; conditions: antagonist radioligand
T4 construct: Eurofins Pharma Discovery (CRO that ran the assay) SafetyScreen44 Panel (Cerep, ITEM P270)
Experimental: as §1, §2, §3, §4, §5, §12

5-HT transporter (h) = biological target: T5, 5-HT transporter (h) (Homo sapiens, UniProt P31645); test: Cerep panel binding assay; conditions: antagonist radioligand
T5 construct: purchased Eurofins Pharma Discovery (Cerep) SafetyScreen44 Panel, ITEM P270
Experimental: as §1, §2, §3, §4, §5, §12

M2 (h) = biological target: T6, M2 (h) (Homo sapiens, UniProt P08172); test: Cerep panel binding assay; conditions: antagonist radioligand
T6 construct: Eurofins Pharma Discovery (CRO that ran the assay) SafetyScreen44 Panel (Cerep, ITEM P270)
Experimental: as §1, §2, §3, §4, §5, §12

[5] = biological target: T7, N neuronal alpha4beta2 (h) (Homo sapiens, UniProt P17787+P43681); test: Cerep panel binding assay; conditions: agonist radioligand
T7 construct: Eurofins Pharma Discovery (CRO that ran the assay) SafetyScreen44 Panel (Cerep, ITEM P270)
Experimental: as §1, §2, §3, §4, §5, §12

H2 (h) = biological target: T8, H2 (h) (Homo sapiens, UniProt P25021); test: Cerep panel binding assay; conditions: antagonist radioligand
T8 construct: Eurofins Pharma Discovery (CRO that ran the assay) SafetyScreen44 Panel (Cerep, ITEM P270)
Experimental: as §1, §2, §3, §4, §5, §12

MAO-A = biological target: T9, MAO-A (Rattus norvegicus, UniProt P21396); test: Cerep panel binding assay; conditions: antagonist radioligand
T9 construct: purchased Eurofins Pharma Discovery (Cerep) SafetyScreen44 Panel, ITEM P270
Experimental: as §1, §2, §3, §4, §5, §12

D2S (h) = biological target: T10, D2S (h) (Homo sapiens, UniProt P14416); test: Cerep panel binding assay; conditions: agonist radioligand
T10 construct: Eurofins Pharma Discovery (CRO that ran the assay) SafetyScreen44 Panel (Cerep, ITEM P270)
Experimental: as §1, §2, §3, §4, §5, §12

TRPV4 channel = biological target: T11, TRPV4 channel (Homo sapiens, UniProt Q9HBA0); test: Ion channel profiling at Charles River: TRPV4; assay type: cell-based; conditions: expressed in CHO cells; read-out: ESTIMATED IC50
T11 construct: host or cells: CHO cells
Experimental: 1.4.3 Ion Channel Profiling at Charles River
Table S9. Compound 24 was tested against the following ion channels at Charles River Laboratories. […]
ScreenPatch Assay Kv1.3 potassium channel (human KCNA3 gene) expressed in CHO […]
FLIPR Assay expressed in HEK293 cells
GABAA α5/β3/γ2 ionotropic receptor (human GABRA5, GABRB3, >30 and GABRG2 genes, expressed in HEK293 cells […]
as §9, §10, §11

[6] = In vivo PK study, IP, SC and PO; conditions: male, CD-1, mouse, plasma, 20 mg/kg
Experimental: For pharmacokinetic experiments via the intraperitoneally (IP), subcutaneously (SC) and perorally
(PO) route 4 weeks old outbred male CD-1 mice (Charles River, Netherlands) were used.
were administered 24 at 20 mg/kg intraperitoneally (IP), subcutaneously (SC) and perorally (PO).
About 20 μL of whole blood was collected serially from the lateral tail vein at time points t = 0.25
(only IP and SC), 0.5, 1, 2, 4, and 8 h post administration.
was collected from the heart. Whole blood was collected into Eppendorf tubes coated with 0.5 M EDTA and immediately spun down at 13,000 rpm for 10 min at 4 °C. The plasma was transferred into
a new Eppendorf tube and then stored at −80 °C until analysis.

hERG = biological target: T12, hERG (Homo sapiens, UniProt Q12809); test: hERG safety, single cell electrophysiology; assay type: cell-based; conditions: read-out: hERG inhibition IC50
T12 construct: Cyprotex
Experimental: as §6, §7, §8, §9, §10, §11

[7] = test system: Bronchiectasis clinical isolates, PA14 and PAO1; test: Antimicrobial minimal inhibitory concentrations (MIC), microdilution; conditions: Pseudomonas aeruginosa

T1 sequence (Q12809 whole entry): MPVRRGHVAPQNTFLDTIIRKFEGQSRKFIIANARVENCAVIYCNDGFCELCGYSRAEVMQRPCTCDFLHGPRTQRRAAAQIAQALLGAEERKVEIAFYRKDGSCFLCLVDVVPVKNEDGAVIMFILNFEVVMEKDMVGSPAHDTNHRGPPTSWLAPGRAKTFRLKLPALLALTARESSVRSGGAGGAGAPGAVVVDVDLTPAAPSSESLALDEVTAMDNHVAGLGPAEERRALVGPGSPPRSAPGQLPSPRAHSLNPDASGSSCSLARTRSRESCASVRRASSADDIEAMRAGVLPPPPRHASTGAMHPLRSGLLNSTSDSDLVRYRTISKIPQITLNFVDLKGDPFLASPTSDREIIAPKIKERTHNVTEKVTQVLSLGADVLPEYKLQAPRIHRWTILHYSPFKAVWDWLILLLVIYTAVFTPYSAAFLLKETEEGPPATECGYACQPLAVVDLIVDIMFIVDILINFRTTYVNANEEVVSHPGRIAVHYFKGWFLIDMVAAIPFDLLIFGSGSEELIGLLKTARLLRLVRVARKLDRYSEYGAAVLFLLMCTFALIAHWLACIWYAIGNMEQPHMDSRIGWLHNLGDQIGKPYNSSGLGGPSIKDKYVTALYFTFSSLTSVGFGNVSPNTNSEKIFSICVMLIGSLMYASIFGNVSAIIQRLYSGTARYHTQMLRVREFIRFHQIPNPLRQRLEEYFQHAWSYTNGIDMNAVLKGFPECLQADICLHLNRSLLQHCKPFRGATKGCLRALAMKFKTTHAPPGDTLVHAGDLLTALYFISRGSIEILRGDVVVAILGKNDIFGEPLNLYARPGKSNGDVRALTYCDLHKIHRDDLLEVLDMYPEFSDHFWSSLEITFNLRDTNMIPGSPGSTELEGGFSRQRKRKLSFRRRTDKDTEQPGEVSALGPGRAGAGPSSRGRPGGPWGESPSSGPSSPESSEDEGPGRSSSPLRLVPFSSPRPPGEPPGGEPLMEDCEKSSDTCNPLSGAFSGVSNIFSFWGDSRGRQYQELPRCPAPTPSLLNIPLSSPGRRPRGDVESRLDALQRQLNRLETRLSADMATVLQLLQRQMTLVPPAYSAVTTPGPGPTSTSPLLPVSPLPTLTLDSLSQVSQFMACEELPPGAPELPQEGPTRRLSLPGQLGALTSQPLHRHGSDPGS
T2 sequence (P08908 whole entry): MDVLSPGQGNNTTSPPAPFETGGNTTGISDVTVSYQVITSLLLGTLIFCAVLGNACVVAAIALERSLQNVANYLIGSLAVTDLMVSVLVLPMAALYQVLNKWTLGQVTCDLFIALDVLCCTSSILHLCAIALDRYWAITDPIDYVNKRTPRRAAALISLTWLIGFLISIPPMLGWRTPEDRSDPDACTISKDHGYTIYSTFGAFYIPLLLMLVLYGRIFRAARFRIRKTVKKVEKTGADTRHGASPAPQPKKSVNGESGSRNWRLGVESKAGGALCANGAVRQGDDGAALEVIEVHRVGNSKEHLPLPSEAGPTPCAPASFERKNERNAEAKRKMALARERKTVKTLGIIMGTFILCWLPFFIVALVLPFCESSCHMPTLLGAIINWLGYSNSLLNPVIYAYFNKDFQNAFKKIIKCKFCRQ
T4 sequence (P20309 whole entry): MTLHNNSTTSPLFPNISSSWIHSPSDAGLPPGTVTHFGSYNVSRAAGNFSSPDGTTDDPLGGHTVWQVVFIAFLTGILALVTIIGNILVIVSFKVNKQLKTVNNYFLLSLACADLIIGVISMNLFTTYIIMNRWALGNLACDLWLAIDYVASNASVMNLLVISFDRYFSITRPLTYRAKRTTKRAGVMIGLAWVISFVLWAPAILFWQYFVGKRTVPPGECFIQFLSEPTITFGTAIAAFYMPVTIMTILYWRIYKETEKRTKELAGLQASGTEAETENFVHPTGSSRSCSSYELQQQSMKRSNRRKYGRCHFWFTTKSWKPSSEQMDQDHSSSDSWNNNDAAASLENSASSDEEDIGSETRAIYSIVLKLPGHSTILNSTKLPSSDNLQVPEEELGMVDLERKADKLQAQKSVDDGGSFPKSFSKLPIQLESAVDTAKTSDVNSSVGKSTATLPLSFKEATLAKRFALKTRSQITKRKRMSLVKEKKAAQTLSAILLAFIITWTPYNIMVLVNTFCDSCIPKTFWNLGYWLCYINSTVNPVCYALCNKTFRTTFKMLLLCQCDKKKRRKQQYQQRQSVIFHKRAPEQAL
T12 sequence (Q12809 whole entry): as the sequence (Q12809 whole entry) above
T11 sequence (Q9HBA0 whole entry): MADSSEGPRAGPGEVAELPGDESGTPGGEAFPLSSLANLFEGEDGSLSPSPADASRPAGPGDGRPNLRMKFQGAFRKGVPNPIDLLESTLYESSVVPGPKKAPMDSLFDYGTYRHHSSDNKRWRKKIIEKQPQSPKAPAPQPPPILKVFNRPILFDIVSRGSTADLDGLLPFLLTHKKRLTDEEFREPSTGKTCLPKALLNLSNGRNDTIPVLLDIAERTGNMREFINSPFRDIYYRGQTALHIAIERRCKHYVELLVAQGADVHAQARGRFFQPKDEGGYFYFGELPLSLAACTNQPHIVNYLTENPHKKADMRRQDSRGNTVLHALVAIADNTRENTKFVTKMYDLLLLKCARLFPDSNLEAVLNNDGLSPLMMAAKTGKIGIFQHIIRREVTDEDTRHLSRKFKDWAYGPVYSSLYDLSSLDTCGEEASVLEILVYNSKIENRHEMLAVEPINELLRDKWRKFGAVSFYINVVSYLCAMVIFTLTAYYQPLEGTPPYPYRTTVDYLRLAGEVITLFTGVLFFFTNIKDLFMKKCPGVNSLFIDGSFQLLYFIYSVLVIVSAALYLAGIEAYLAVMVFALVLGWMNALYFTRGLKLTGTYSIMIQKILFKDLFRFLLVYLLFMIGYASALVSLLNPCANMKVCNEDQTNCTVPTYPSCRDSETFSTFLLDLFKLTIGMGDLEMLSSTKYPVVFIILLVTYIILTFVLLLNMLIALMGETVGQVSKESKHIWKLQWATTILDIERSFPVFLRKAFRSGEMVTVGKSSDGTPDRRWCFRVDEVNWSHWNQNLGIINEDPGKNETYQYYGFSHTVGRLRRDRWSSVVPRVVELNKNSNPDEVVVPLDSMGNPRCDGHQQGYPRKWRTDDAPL
T6 sequence (P08172 whole entry): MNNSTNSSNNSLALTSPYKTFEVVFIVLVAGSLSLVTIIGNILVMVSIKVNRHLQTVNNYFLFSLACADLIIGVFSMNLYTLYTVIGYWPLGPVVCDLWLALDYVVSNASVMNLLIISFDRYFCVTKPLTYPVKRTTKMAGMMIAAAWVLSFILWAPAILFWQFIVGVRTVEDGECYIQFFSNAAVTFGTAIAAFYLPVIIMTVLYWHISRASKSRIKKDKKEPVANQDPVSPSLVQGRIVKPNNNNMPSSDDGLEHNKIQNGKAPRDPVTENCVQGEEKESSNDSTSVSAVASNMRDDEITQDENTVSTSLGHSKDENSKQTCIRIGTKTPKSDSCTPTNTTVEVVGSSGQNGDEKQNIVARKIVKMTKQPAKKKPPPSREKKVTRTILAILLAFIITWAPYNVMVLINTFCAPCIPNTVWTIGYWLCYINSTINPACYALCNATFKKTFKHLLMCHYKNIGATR
T8 sequence (P25021 whole entry): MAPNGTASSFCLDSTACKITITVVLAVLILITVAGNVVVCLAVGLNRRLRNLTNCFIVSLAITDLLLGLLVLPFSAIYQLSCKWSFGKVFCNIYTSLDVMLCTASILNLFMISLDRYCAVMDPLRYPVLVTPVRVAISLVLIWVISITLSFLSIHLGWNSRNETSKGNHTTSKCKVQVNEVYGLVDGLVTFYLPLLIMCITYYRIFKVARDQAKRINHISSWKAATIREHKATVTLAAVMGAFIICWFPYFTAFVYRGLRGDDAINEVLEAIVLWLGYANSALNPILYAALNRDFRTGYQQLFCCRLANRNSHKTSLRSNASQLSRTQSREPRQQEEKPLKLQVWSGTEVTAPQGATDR

Q: Which results are given for `CC(C)Oc1ccc(-c2ncc(CNc3ccnc(C(F)(F)F)c3)cn2)cc1Cl` [Compound 24]?
A: BINDING (%) [1]: 75.3% and > 50%; IC50 (PA14 biofilm): 0.346 µM; half-life [2]: 9 min; IC50 (CYP1A): > 25 µM; half-life at 1 μM [3]: 0.317 h; BINDING (%) [4]: 73.1% and > 50%; inhibition at 10 µM (5-HT1A (h)): 11.3%; inhibition at 10 µM (beta1 (h)): 7.1%; inhibition at 10 µM (M3 (h)): -2%; inhibition at 10 µM (5-HT transporter (h)): 49.8%; inhibition at 10 µM (M2 (h)): 0%; inhibition at 10 µM [5]: -4.7%; inhibition at 10 µM (H2 (h)): -30%; inhibition at 10 µM (MAO-A): 24.9%; inhibition at 10 µM (D2S (h)): -0.6%; IC50 (TRPV4 channel): > 30 µM; bioavailability ([6]; intraperitoneal): ~36%; AUC(0-t) ([6]; ip): 557 µg·h/mL; CL/F ([6]; ip): 1.7 ± 1.8 mL/min/kg; Cmax ([6]; ip): 65.8 µg/mL; Tmax ([6]; ip): 1 h; Vd/F ([6]; ip): 0.25 ± 0.3 L/kg; bioavailability ([6]; ip): 36.1%; half-life ([6]; ip): 1.68 h; CL/F ([6]; po): 1.58 ± 0.4 mL/min/kg; Cmax ([6]; po): 45.6 µg/mL; Tmax ([6]; po): 0.83 ± 0.2 h; Vd/F ([6]; po): 0.25 L/kg; bioavailability ([6]; po): 13.8%; half-life ([6]; po): 1.9 ± 0.5 h; AUC(0-t) ([6]; sc): 363 µg·h/mL; CL/F ([6]; sc): 0.93 ± 0.1 mL/min/kg; Tmax ([6]; sc): 2 h; Vd/F ([6]; sc): 0.12 L/kg; bioavailability ([6]; sc): 23.5%; half-life ([6]; sc): 1.51 h; IC50 (hERG): 15.8 µM

Q: With `NC[C@H]1O[C@H](O[C@H]2[C@H](O)[C@@H](O[C@H]3O[C@H](CO)[C@@H](O)[C@H](N)[C@H]3O)[C@H](N)C[C@@H]2N)[C@H](N)C[C@@H]1O` [Tobramycin, tobramycin] as the compound, how does the MIC ([7]; PA14|PAO1, strain column 1 of 16 (strain heads not assignable)) read?
A: Its MIC is 1 µg/mL (≈ 2.14 µM).

Q: And the MIC ([7]; strain column 2 of 16)?
A: Its MIC is 1 µg/mL (≈ 2.14 µM).

Q: What about the MIC ([7]; strain column 3 of 16) of the same compound?
A: The MIC was ≤ 0.5 µg/mL.

Q: And the MIC ([7]; strain column 4 of 16)?
A: Its MIC is ≤ 0.5 µg/mL.

Q: What about the MIC ([7]; strain column 5 of 16) of the same compound?
A: The MIC was ≤ 0.5 µg/mL.

Q: What about the MIC ([7]; strain column 6 of 16) of the same compound?
A: The MIC was ≤ 0.5 µg/mL.

Q: What about the MIC ([7]; strain column 7 of 16) of the same compound?
A: Its MIC is ≤ 0.5 µg/mL.

Q: What about the MIC ([7]; strain column 8 of 16) of the same compound?
A: The MIC was 2 µg/mL (≈ 4.28 µM).

Q: And the MIC ([7]; strain column 9 of 16)?
A: Its MIC is 1 µg/mL (≈ 2.14 µM).

Q: And the MIC ([7]; strain column 10 of 16)?
A: Its MIC is ≤ 0.5 µg/mL.

Q: What about the MIC ([7]; strain column 11 of 16) of the same compound?
A: The MIC was ≤ 0.5 µg/mL.

Q: And the MIC ([7]; strain column 12 of 16)?
A: The MIC was ≤ 0.5 µg/mL.

Q: And the MIC ([7]; strain column 13 of 16)?
A: The MIC was ≤ 0.5 µg/mL.

Q: What about the MIC ([7]; strain column 14 of 16) of the same compound?
A: Its MIC is ≤ 0.5 µg/mL.

Q: And the MIC ([7]; strain column 15 of 16)?
A: The MIC was ≤ 0.5 µg/mL.

Q: What about the MIC ([7]; strain column 16 of 16) of the same compound?
A: The MIC was ≤ 0.5 µg/mL.
